In US11524966B1 (Valo Early Discovery, Inc., priority 2017, dated 2022):
pIC50: −log10 of the molar value.

Biological target: T1, USP28 (His-tagged USP28-FL-mammalian) (Homo sapiens, UniProt Q96RU2)
T1 construct: Expression of USP28 (1-1077)-TEV-6*His (pTT5 vector); made in house; host or cells: Expi293f cells (pTT5 vector)
T1 sequence (Q96RU2 1-1077): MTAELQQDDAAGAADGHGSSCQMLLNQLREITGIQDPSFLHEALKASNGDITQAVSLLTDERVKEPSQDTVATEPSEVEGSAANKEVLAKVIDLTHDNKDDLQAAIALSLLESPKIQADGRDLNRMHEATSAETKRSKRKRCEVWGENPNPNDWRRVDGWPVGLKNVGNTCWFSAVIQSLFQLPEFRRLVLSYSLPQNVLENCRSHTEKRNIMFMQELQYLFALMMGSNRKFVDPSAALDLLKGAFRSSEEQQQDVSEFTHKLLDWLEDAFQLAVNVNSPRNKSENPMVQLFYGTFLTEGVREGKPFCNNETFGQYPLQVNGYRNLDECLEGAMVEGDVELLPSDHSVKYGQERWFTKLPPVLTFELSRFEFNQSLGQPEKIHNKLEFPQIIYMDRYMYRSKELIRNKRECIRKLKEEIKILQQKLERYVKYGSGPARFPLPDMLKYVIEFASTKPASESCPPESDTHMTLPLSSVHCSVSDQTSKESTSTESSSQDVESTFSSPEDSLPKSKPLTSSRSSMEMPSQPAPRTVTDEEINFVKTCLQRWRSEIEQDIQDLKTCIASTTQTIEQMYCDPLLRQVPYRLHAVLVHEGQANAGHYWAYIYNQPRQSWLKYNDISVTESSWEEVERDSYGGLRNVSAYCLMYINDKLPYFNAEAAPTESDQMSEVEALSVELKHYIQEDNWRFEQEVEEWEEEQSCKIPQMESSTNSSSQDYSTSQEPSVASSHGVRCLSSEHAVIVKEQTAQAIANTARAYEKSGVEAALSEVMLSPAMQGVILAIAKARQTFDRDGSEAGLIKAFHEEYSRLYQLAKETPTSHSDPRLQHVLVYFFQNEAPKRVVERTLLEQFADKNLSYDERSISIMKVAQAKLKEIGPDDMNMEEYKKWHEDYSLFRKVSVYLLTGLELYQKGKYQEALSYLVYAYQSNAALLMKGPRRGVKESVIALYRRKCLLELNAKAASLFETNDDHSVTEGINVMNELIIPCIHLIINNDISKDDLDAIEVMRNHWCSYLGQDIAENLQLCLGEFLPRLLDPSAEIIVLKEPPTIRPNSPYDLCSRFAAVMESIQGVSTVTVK
Assay: Ubiquitin-Rhodamine 110 Assay for USP28 Activity, Example A-1(a)
Format: biochemical
Details: Ubiquitin-Rhodamine 110 assay, format Example A-1(a); read-out: USP28 A-1(a) IC50 range
How it was run: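 IC50 from 4-parameter logistic fit of percent inhibition versus no-enzyme and DMSO controls; compounds 25 μM to 1.3 nM, 3-fold. Ub-Rh110 cleavage (25 nM, below Km) by […] mammalian-expressed USP28-FL-His ran 45 min at room temperature, stopped with 10 mM citric acid, read ex 485/em 535.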

Row | SMILES | pIC50
1 | Cc1ccc2c(N)c(C(=O)N[C@@H]3CCc4c(ccc(N5CC6CCC(C5)N6)c4C#N)C3)sc2n1 (single isomer, unassigned) [Example 14-1] | 7.30 to 9.00
2 | Cc1ccc2c(N)c(C(=O)N[C@H]3CCc4c(ccc(N5CC6CCC(C5)N6)c4C#N)C3)sc2n1 (single isomer, unassigned) [Example 14-2] | 6.70 to 7.30
3 | Cc1ccc2c(N)c(C(=O)N[C@@H]3CCc4cc(N5CC6CCC(C5)N6)c(C#N)cc4C3)sc2n1 (single isomer, unassigned) [Example 14-3] | 5.70 to 6.70
4 | Cc1ccc2c(N)c(C(=O)N[C@H]3CCc4cc(N5CC6CCC(C5)N6)c(C#N)cc4C3)sc2n1 (single isomer, unassigned) [Example 14-4] | 7.30 to 9.00
5 | Cc1cnc2c(N)c(C(=O)N[C@@H]3CCc4c(ccc(N5CC6CCC(C5)N6)c4C#N)C3)sc2n1 (single isomer, unassigned) [Example 14-5] | 7.30 to 9.00
6 | Cc1cnc2c(N)c(C(=O)N[C@H]3CCc4c(ccc(N5CC6CCC(C5)N6)c4C#N)C3)sc2n1 (single isomer, unassigned) [Example 14-6] | 5.70 to 6.70
7 | Cc1cnc2c(N)c(C(=O)N[C@@H]3CCc4cc(N5CC6CCC(C5)N6)c(C#N)cc4C3)sc2n1 (single isomer, unassigned) [Example 14-7] | 5.70 to 6.70
8 | Cc1cnc2c(N)c(C(=O)N[C@H]3CCc4cc(N5CC6CCC(C5)N6)c(C#N)cc4C3)sc2n1 (single isomer, unassigned) [Example 14-8] | 7.30 to 9.00
